B1: Cre recombinase (No CPP): Cre recombinase without CPP, control (protein, UniProt P06956 1-343, looked up)
Recombinase cre: MSNLLTVHQNLPALPVDATSDEVRKNLMDMFRDRQAFSEHTWKMLLSVCRSWAAWCKLNNRKWFPAEPEDVRDYLLYLQARGLAVKTIQQHLGQLNMLHRRSGLPRPSDSNAVSLVMRRIRKENVDAGERAKQALAFERTDFDQVRSLMENSDRCQDIRNLAFLGIAYNTLLRIAEIARIRVKDISRTDGGRMLIHIGRTKTLVSTAGVEKALSLGVTKLVERWISVSGVADDPNNYLFCRVRKNGVAAPSATSQLSTRALEGIFEATHRLIYGAKDDSGQRYLAWSGHSARVGAARDMARAGVSIPEIMQAGGWTNVNIVMNYIRNLDSETGAMVRLLEDGD

Experiments:
[1] = system: E. coli DH5α cells; experiment: Penetration efficiency of TAMRA-labeled CPPs, electroporation-based method, flow cytometry; assay type: cell-based, Escherichia coli; conditions: library CPPs, E. coli, electroporation, Tris buffer pH 7.5, 1 h, mean of n = 3–5
Description: (§1) (Fig. 2a). […] First, we prepared electrocompetent and chemically competent cells.

[2] = system: E. coli DH5α cells; experiment: Penetration efficiency of TAMRA-labeled CPPs, chemical (CaCl2) treatment method, flow cytometry; assay type: cell-based, Escherichia coli; conditions: TAMRA fluorescence intensity in E. coli, library screen of 98 CPPs
Description: as §1

[3] = system: E. coli DH5α cells; experiment: Inhibition of bacterial cell growth by CPPs (Max OD600 relative to control); assay type: cell-based, Escherichia coli; conditions: for Max OD (%) (Figure 3f): E. coli DH5α diluted 1/1000 in LB, 5 μg TAMRA-CPP (0.1 μg/μL), OD600 monitored 18 h, max OD of treated cells / max OD of control cells
Experimental: E. coli DH5α cells were grown until OD600 = 1 at 37 °C with shaking at 200 rpm. […] Then, cell growth (OD600) was monitored for 18 h by using the Synergy^TM H1 hybrid multi-mode microplate reader (BioTek, Vermont, USA). As a control, we used E. coli cells that were not treated with CPPs.

[4] = system: HEK293 cells; conditions: literature knowledge; cited from earlier work
Description: To date, mostly CPPs have been studied and utilized in mammalian cells, but in this study, we studied CPPs in bacteria, E. coli. Thus, it would be very useful to find the similarities and differences of CPPs between prokaryotes and eukaryotes.

[5] = system: Methylomonas sp. DH-1; experiment: Marker gene excision using CPP-conjugated Cre recombinase; assay type: cell-based; conditions: Methylomonas sp. DH-1, 50 μL protein (0.05 μg/μL), electroporation, 4 mM NiCl2 selection
Experimental: For the marker gene excision experiment, the pIns-LKTL plasmid was transformed into Methylomonas sp. DH-1, and then the marker genes flanked with loxP sites (loxP-kan^R-tetA-loxP) were integrated into a non-coding region of the Methylomonas sp. DH-1 genome. To select correctly knocked-in cells, the transformed cells were grown on an NMS agar plate containing kanamycin (10 μg/mL) and 30% methane for 3–7 days. The knocked-in cells were harvested from the plate and washed twice with distilled water, and 50 μL of cell suspension was mixed with 50 μL of CPP-conjugated Cre recombinase (0.05 μg/μL). […] After electroporation, cells were incubated in two types of recovery buffers (20 mM Tris-HCl at pH 7.5 or NMS medium) for 3 h and then spread on NMS agar plates containing 4 mM NiCl2. The colonies grown on the NiCl2 plates were transferred to an NMS agar plate and a kanamycin-containing NMS agar plate to confirm the excision of the marker genes.

| Molecule | Penetration efficiency (TAMRA fluorescence in E. coli) [1] | Penetration efficiency (TAMRA FI) [2] | Max OD (%) (Figure 3f) ([3]; replicate 1) | Max OD (%) (Figure 3f) ([3]; replicate 2) | Max OD (%) (Figure 3f) ([3]; replicate 3) | Growth rate (%) ([3]; E. coli growth with CPP, relative to control) | Anti-bacterial activity ([3]; class (Cytotoxic / Safe), cutoff of 50%) | Efficiency as CPP in mammalian cells [4] | Marker excision efficiency (%) ([5]; recovery in NMS buffer 3 h, replicate 1) | Marker excision efficiency (%) ([5]; recovery in NMS buffer 3 h, replicate 2) | Marker excision efficiency (%) ([5]; recovery in NMS buffer 3 h, replicate 3) | Marker excision efficiency (%) ([5]; recovery in Tris-Cl buffer 3 h, replicate 1) | Marker excision efficiency (%) ([5]; recovery in Tris-Cl buffer 3 h, replicate 2) | Marker excision efficiency (%) ([5]; recovery in Tris-Cl buffer 3 h, replicate 3) |
| --- | --- | --- | --- | --- | --- | --- | --- | --- | --- | --- | --- | --- | --- | --- |
| KLPVM [CPP 63, TAMRA-labeled CPP of the 98-CPP library] | low efficiency | 26.6874 | 69.833 | 72.8601 | 66.2839 | 69.659 | Safe | highly efficient | – | – | – | – | – | – |
| B1 | – | – | – | – | – | – | – | – | 10.353 | 9.156 | 9.01 | 1.75 | 2.19 | 1.75 |
